Experimental data: the NIST ThermoML archive (doi:10.1021/je900437b)

Assay: xn = mol fraction of the nth substance listed
Settings: 101 kPa, Liquid; for speed of sound: Sing-around technique in a fixed-path interferometer; for mass density: Vibrating tube method

CC(C)(N)CO [2-amino-2-methylpropan-1-ol] + NCCO
Settings	mass density [kg/m3]	speed of sound [m/s]
293.15 K, x2 = 0	936.751	1501.4
293.15 K, x2 = 0.141	944.932	1525.9
293.15 K, x2 = 0.2691	953.001	1550.2
293.15 K, x2 = 0.3862	961.121	1574
293.15 K, x2 = 0.4939	969.165	1597.6
293.15 K, x2 = 0.5933	977.051	1621.2
293.15 K, x2 = 0.6869	984.969	1645.1
293.15 K, x2 = 0.7724	992.742	1668.2
293.15 K, x2 = 0.8532	1000.62	1691
293.15 K, x2 = 0.9268	1008.22	1712.6
298.15 K, x2 = 0	932.596	1483.4
298.15 K, x2 = 0.141	940.731	1508.3
298.15 K, x2 = 0.2691	948.799	1533
298.15 K, x2 = 0.3862	956.918	1557.1
298.15 K, x2 = 0.4939	964.959	1580.9
298.15 K, x2 = 0.5933	972.875	1604.7
298.15 K, x2 = 0.6869	980.811	1628.8
298.15 K, x2 = 0.7724	988.58	1652
298.15 K, x2 = 0.8532	996.465	1674.8
298.15 K, x2 = 0.9268	1004.08	1696.5
303.15 K, x2 = 0	928.395	1461.2
303.15 K, x2 = 0.141	936.493	1486.9
303.15 K, x2 = 0.2691	944.603	1512.3
303.15 K, x2 = 0.3862	952.718	1537.1
303.15 K, x2 = 0.4939	960.768	1561.6
303.15 K, x2 = 0.5933	968.682	1585.9
303.15 K, x2 = 0.6869	976.624	1610.5
303.15 K, x2 = 0.7724	984.413	1634.3
303.15 K, x2 = 0.8532	992.305	1657.7
303.15 K, x2 = 0.9268	999.98	1679.9
308.15 K, x2 = 0	924.174	1442.4
308.15 K, x2 = 0.141	932.236	1468.5
308.15 K, x2 = 0.2691	940.355	1494.4
308.15 K, x2 = 0.3862	948.482	1519.5
308.15 K, x2 = 0.4939	956.545	1544.3
308.15 K, x2 = 0.5933	964.465	1569
308.15 K, x2 = 0.6869	972.442	1593.8
308.15 K, x2 = 0.7724	980.259	1617.7
308.15 K, x2 = 0.8532	988.206	1641.2
308.15 K, x2 = 0.9268	995.885	1663.6
313.15 K, x2 = 0	919.945	1423.8
313.15 K, x2 = 0.141	927.969	1450.4
313.15 K, x2 = 0.2691	936.091	1476.5
313.15 K, x2 = 0.3862	944.248	1501.9
313.15 K, x2 = 0.4939	952.319	1527
313.15 K, x2 = 0.5933	960.252	1551.9
313.15 K, x2 = 0.6869	968.25	1576.9
313.15 K, x2 = 0.7724	976.093	1601
313.15 K, x2 = 0.8532	984.066	1624.7
313.15 K, x2 = 0.9268	991.791	1647.3
318.15 K, x2 = 0	915.702	1405.3
318.15 K, x2 = 0.141	923.687	1432.2
318.15 K, x2 = 0.2691	931.816	1458.6
318.15 K, x2 = 0.3862	940.009	1484.3
318.15 K, x2 = 0.4939	948.077	1509.7
318.15 K, x2 = 0.5933	956.017	1534.8
318.15 K, x2 = 0.6869	964.037	1559.9
318.15 K, x2 = 0.7724	971.917	1584.1
318.15 K, x2 = 0.8532	979.896	1608
318.15 K, x2 = 0.9268	987.66	1630.8
323.15 K, x2 = 0	911.431	1386.9
323.15 K, x2 = 0.141	919.381	1414.2
323.15 K, x2 = 0.2691	927.518	1440.8
323.15 K, x2 = 0.3862	935.735	1466.7
323.15 K, x2 = 0.4939	943.814	1492.3
323.15 K, x2 = 0.5933	951.753	1517.7
323.15 K, x2 = 0.6869	959.804	1542.9
323.15 K, x2 = 0.7724	967.721	1567.2
323.15 K, x2 = 0.8532	975.738	1591.3
323.15 K, x2 = 0.9268	983.527	1614.4

CN(CCO)CCO [N-methyldiethanolamine] + NCCO
Settings	mass density [kg/m3]	speed of sound [m/s]
293.15 K, x2 = 0	1042.2	1585.5
293.15 K, x2 = 0.1789	1040.32	1603.7
293.15 K, x2 = 0.3286	1038.49	1622.3
293.15 K, x2 = 0.456	1036.46	1640
293.15 K, x2 = 0.5691	1034.2	1656.3
293.15 K, x2 = 0.6614	1031.81	1671.6
293.15 K, x2 = 0.7451	1029.17	1686
293.15 K, x2 = 0.8197	1026.39	1698.7
293.15 K, x2 = 0.854	1025	1705.5
293.15 K, x2 = 0.8865	1023.48	1712
293.15 K, x2 = 0.9461	1020.22	1723.3
293.15 K, x2 = 0.9738	1018.27	1729.4
298.15 K, x2 = 0	1038.29	1570.1
298.15 K, x2 = 0.1789	1036.35	1588.5
298.15 K, x2 = 0.3286	1034.46	1607.1
298.15 K, x2 = 0.456	1032.46	1624.7
298.15 K, x2 = 0.5691	1030.16	1641
298.15 K, x2 = 0.6614	1027.72	1656.2
298.15 K, x2 = 0.7451	1025.1	1670.5
298.15 K, x2 = 0.8197	1022.32	1683.1
298.15 K, x2 = 0.854	1020.84	1689.8
298.15 K, x2 = 0.8865	1019.33	1696.3
298.15 K, x2 = 0.9461	1016.09	1707.3
298.15 K, x2 = 0.9738	1014.2	1713.3
303.15 K, x2 = 0	1034.36	1554.8
303.15 K, x2 = 0.1789	1032.34	1573.4
303.15 K, x2 = 0.3286	1030.41	1591.9
303.15 K, x2 = 0.456	1028.38	1609.4
303.15 K, x2 = 0.5691	1026.07	1625.7
303.15 K, x2 = 0.6614	1023.61	1640.8
303.15 K, x2 = 0.7451	1020.96	1655
303.15 K, x2 = 0.8197	1018.17	1667.5
303.15 K, x2 = 0.854	1016.66	1674.1
303.15 K, x2 = 0.8865	1015.15	1680.6
303.15 K, x2 = 0.9461	1011.9	1691.5
303.15 K, x2 = 0.9738	1009.95	1697.5
308.15 K, x2 = 0	1030.43	1539.5
308.15 K, x2 = 0.1789	1028.36	1558.2
308.15 K, x2 = 0.3286	1026.41	1576.6
308.15 K, x2 = 0.456	1024.37	1594
308.15 K, x2 = 0.5691	1022.01	1610.2
308.15 K, x2 = 0.6614	1019.55	1625.2
308.15 K, x2 = 0.7451	1016.86	1639.4
308.15 K, x2 = 0.8197	1014.03	1651.8
308.15 K, x2 = 0.854	1012.55	1658.3
308.15 K, x2 = 0.8865	1011.03	1664.7
308.15 K, x2 = 0.9461	1007.83	1675.5
308.15 K, x2 = 0.9738	1005.91	1681.3
313.15 K, x2 = 0	1026.48	1524.2
313.15 K, x2 = 0.1789	1024.36	1543
313.15 K, x2 = 0.3286	1022.38	1561.3
313.15 K, x2 = 0.456	1020.33	1578.7
313.15 K, x2 = 0.5691	1017.96	1594.7
313.15 K, x2 = 0.6614	1015.47	1609.7
313.15 K, x2 = 0.7451	1012.76	1623.8
313.15 K, x2 = 0.8197	1009.92	1636
313.15 K, x2 = 0.854	1008.44	1642.5
313.15 K, x2 = 0.8865	1006.91	1648.8
313.15 K, x2 = 0.9461	1003.74	1659.5
313.15 K, x2 = 0.9738	1001.87	1665.2
318.15 K, x2 = 0	1022.53	1508.8
318.15 K, x2 = 0.1789	1020.38	1527.7
318.15 K, x2 = 0.3286	1018.35	1546
318.15 K, x2 = 0.456	1016.27	1563.2
318.15 K, x2 = 0.5691	1013.89	1579.2
318.15 K, x2 = 0.6614	1011.39	1594.1
318.15 K, x2 = 0.7451	1008.66	1608
318.15 K, x2 = 0.8197	1005.81	1620.2
318.15 K, x2 = 0.854	1004.31	1626.6
318.15 K, x2 = 0.8865	1002.79	1632.8
318.15 K, x2 = 0.9461	999.607	1643.3
318.15 K, x2 = 0.9738	997.788	1649
323.15 K, x2 = 0	1018.58	1493.4
323.15 K, x2 = 0.1789	1016.38	1512.4
323.15 K, x2 = 0.3286	1014.32	1530.6
323.15 K, x2 = 0.456	1012.2	1547.7
323.15 K, x2 = 0.5691	1009.81	1563.6
323.15 K, x2 = 0.6614	1007.31	1578.4
323.15 K, x2 = 0.7451	1004.57	1592.2
323.15 K, x2 = 0.8197	1001.7	1604.3
323.15 K, x2 = 0.854	1000.21	1610.7
323.15 K, x2 = 0.8865	998.693	1616.8
323.15 K, x2 = 0.9461	995.464	1627.2
323.15 K, x2 = 0.9738	993.693	1632.8
